Measured values from patent publication US20250345459A1, “COMPOUND OR SALT THEREOF, LIPID COMPOSITION, PHARMACEUTICAL COMPOSITION, AND DELIVERY CARRIER” (FUJIFILM Corporation, priority 2023, published 2025).

Legend:
[1] = Particle size of EPO mRNA-encapsulating lipid nanoparticles; format: physicochemical; settings: mixed solution PBS
Description: (§1) The compounds described in Table 1, the neutral lipid, cholesterol (product name: Cholesterol HP; NIPPON FINE CHEMICAL CO., LTD.), and 1,2-dimyristoyl-rac-glycero-3-(methylpolyoxyethylene 2000) (hereinafter, called DMG-PEG2000) (product name: SUNBRIGHT® GM-020; NOF corporation) were dissolved in ethanol at a molar ratio of ionized lipid:neutral lipid:cholesterol:DMG-PEG2000=50:10:38.5:1.5 mol % such that the total lipid concentration was 12.5 mmol/L, to obtain an oil phase.
(§2) As the neutral lipid, 1,2-distearoyl-sn-glycero-3-phosphocholine (product name: COATSOME® MC-8080; NOF corporation) (hereinafter, DSPC), or L-α-dioleoylphosphatidylethanolamine (hereinafter, DOPE) (product name: COATSOME® MC-8181; NOF corporation) was used.
(§3) EPO mRNA (product name: CleanCap EPO mRNA (5 moU); TriLink) was diluted with 50 mmol/L citrate buffer having a pH 4.0 such that the weight ratio of total lipid concentration to mRNA concentration is about 20:1 to 64:1, thereby obtaining a water phase. Then, the water phase and the oil phase were mixed together using NanoAssemblr (Precision NanoSystems) such that the volume ratio of water phase:oil phase was 3:1. The mixed solution was diluted 2-fold with any of phosphate buffered physiological saline (PBS), water, or a 20 mmol/L Tris buffer solution (pH 7.4) to obtain a dispersion liquid of mRNA lipid nanoparticles. The dispersion liquid was dialyzed with 20 mmol/L Tris buffer solution (pH 7.4) containing 8% sucrose using a dialysis cassette (Slide-A-Lyzer G2, MWCO: 10 kD, Thermo Fisher Scientific) to remove ethanol, thereby obtaining EPO mRNA-encapsulating lipid nanoparticles.
The particle size of the mRNA-encapsulating lipid nanoparticles was measured by 5-fold diluting the dispersion liquid of lipid nanoparticle with phosphate buffered physiological saline (PBS) using a particle size measurement device NanoSaqla (Otsuka Electronics Co., Ltd.).

[2] = system: ICR mice; test: EPO protein expression in mice after intravenous EPO mRNA lipid nanoparticles; format: in vivo; settings: mRNA 0.1 mg/kg, plasma 6 hours after administration
Description: as §1, §2, §3
The dispersion liquid of mRNA lipid nanoparticles prepared in above <Preparation of EPO mRNA-encapsulating lipid nanoparticles> was intravenously administered to ICR mice at a mRNA dosage of 0.1 mg/kg. 6 hours after the administration, blood was collected from the caudal vena cava, thereby obtaining plasma. The human EPO […] was quantified by using the obtained blood plasma and Erythropoietin (EPO) Human Elisa Kit (Abcam.plc). The quantitative value is described as a relative amount of EPO protein in a case where Comparative Example 1 is 1.

[3] = system: EPO mRNA; test: mRNA encapsulation rate of mRNA lipid nanoparticles; format: physicochemical; settings: mixed solution PBS
Description: as §1, §2, §3
EPO mRNA was diluted with MilliQ water to prepare a diluted sample in 2-fold dilution series from 100 µg/mL to […], and a calibration curve solution was prepared. 50 μL of the calibration curve solution or the mRNA lipid nanoparticles was mixed with 450 μL of methanol to prepare a measurement solution.
The absorbance of each measurement solution at 260 nm and 330 nm was measured using a UV plate reader (Multiskan Go, Thermo Fisher Scientific), the absorbance at 330 nm was subtracted from the absorbance at 260 nm, and the result was defined as the absorbance of each measurement solution. The total […] nucleic acid concentration was calculated from the calibration curve using the absorbance of each sample measurement solution.
The concentration of the outer water phase nucleic acid was quantified by a standard addition method using a QuanT-iT RiboGreen RNA Assay Kit (Thermo Fisher Scientific). First, a 20× TE buffer included in the above kit was diluted with water, thereby obtaining a 1×TE buffer. TE represents Tris/EDTA (ethylenediaminetetraacetic acid). EPO mRNA was diluted with a TE buffer such that the final concentration was 0 to 400 ng/mL to prepare a nucleic acid diluted series. 10 μL of mRNA lipid nanoparticles diluted 5-fold with TE buffer and 90 µL of a nucleic acid dilution series were mixed in a 96-well plate, 100 μL of a Ribogreen reagent diluted 200-fold with TE buffer was added to each well, and then fluorescence (excitation wavelength: 485 nm, fluorescence wavelength: 535 nm) was measured using a fluorescence plate reader (Infinite 200 Pro M nano+, TECAN). From the obtained results, the outer water phase nucleic acid concentration of each measurement solution was calculated according to the standard addition method.
By using the quantification results of the total mRNA concentration and the mRNA concentration in the outer water phase that were obtained through the above steps, the mRNA encapsulation rate of the mRNA lipid nanoparticles was calculated according to the following Equation. […]

[4] = LNP with neutral lipid DSPC, Lipid/Nucleic acid (wt/wt) 20
[5] = neutral lipid DSPC, Lipid/Nucleic acid (wt/wt) 20, Comparative Example 1 is 1
[6] = LNP with neutral lipid DOPE, Lipid/Nucleic acid (wt/wt) 64
[7] = neutral lipid DOPE, Lipid/Nucleic acid (wt/wt) 64, Comparative Example 1 is 1

Structure (SMILES): CCCCCCCCN(CCCCCCCCCC(=O)OCC(CCCCCC)CCCCCC)C(=O)OCCN(CCOC(=O)CCCCCCC)CCN(CC)CC [Comparative Example 1, 2-hexyloctyl 3-ethyl-6-(2-(octanoyloxy)ethyl)-11-octyl-10-oxo-9-oxa-3,6,11-triazahenicosan-21-oate, reference compound]
- Particle size (nm) [1, 4]: 206 nm
- Relative amount of EPO protein (to Comparative Example 1) [2, 5]: 1.00
- Nucleic acid encapsulation rate (%) [3, 4]: 62%

Structure (SMILES): CCCCCCCCN(CCCCCCCC)C(=O)OCCN(CCOC(=O)N(CCCCCCCC)CCCCCCCC)CCN(CC)CC [Example 1, ((2-(diethylamino)ethyl)azanediyl)bis(ethan-2,1-diyl)bis(dioctylcarbamate)]
- Particle size (nm) [1, 6]: 88.6 nm
- Relative amount of EPO protein (to Comparative Example 1) [2, 7]: 21.60
- Nucleic acid encapsulation rate (%) [3, 6]: >99%

Structure (SMILES): CCCCCCCCN(CCCCC(=O)OCC(CCCCCC)CCCCCC)C(=O)OCCN(CCOC(=O)N(CCCCCCCC)CCCCC(=O)OCC(CCCCCC)CCCCCC)CCN(CC)CC [Example 2, bis(2-hexyloctyl) 11-(2-(diethylamino)ethyl)-6,16-dioctyl-7,15-dioxo-8,14-dioxa-6,11,16-triazahenicosanedioate]
- Particle size (nm) [1, 6]: 95.6 nm
- Particle size (nm) [1, 4]: 82 nm
- Relative amount of EPO protein (to Comparative Example 1) [2, 7]: 24.57
- Relative amount of EPO protein (to Comparative Example 1) [2, 5]: 6.70
- Nucleic acid encapsulation rate (%) [3, 6]: 99%
- Nucleic acid encapsulation rate (%) [3, 4]: 94%

Structure (SMILES): CCCCCC(CCCCC)COC(=O)CCN(CCCC)C(=O)OCCN(CCOC(=O)N(CCCC)CCC(=O)OCC(CCCCC)CCCCC)CCN(CC)CC [Example 6, Bis(2-pentylheptyl) 4,14-dibutyl-9-(2-(diethylamino)ethyl)-5,13-dioxo-6,12-dioxa-4,9,14-triazaheptadecanedioate]
- Particle size (nm) [1, 4]: 183 nm
- Nucleic acid encapsulation rate (%) [3, 4]: 58%

Structure (SMILES): CCCCCC(CCCCC)COC(=O)CCN(CCCC)C(=O)OCCN(CCCN(CC)CC)CCOC(=O)N(CCCC)CCC(=O)OCC(CCCCC)CCCCC [Example 7, Bis(2-pentylheptyl) 4,14-dibutyl-9-(3-(diethylamino)propyl)-5,13-dioxo-6,12-dioxa-4,9,14-triazaheptadecanedioate]
- Particle size (nm) [1, 4]: 215 nm
- Nucleic acid encapsulation rate (%) [3, 4]: 73%

Structure (SMILES): CCCCCCCCCC(=O)OCCN(CCOC(=O)CCCCCCCCC)C(=O)OCCN(CCOC(=O)N(CCOC(=O)CCCCCCCCC)CCOC(=O)CCCCCCCCC)CCN(CC)CC [Example 12, 2-(2-(2-(bis(2-decanoyloxyethyl)carbamoyloxy)ethyl-(2-(diethylamino)ethyl)amino)ethoxycarbonyl-(2-decanoyloxyethyl)amino)ethyl decanoate]
- Particle size (nm) [1, 4]: 169 nm
- Nucleic acid encapsulation rate (%) [3, 4]: 62%

Structure (SMILES): CCCCCC(CCCCC)COC(=O)CCCCN(C(=O)OCCN(CCOC(=O)N(CCCCC(=O)OCC(CCCCC)CCCCC)C(C)C)CCN(CC)CC)C(C)C [Example 13, Bis(2-pentylheptyl) 11-(2-(diethylamino)ethyl)-6,16-diisopropyl-7,15-dioxo-8,14-dioxa-6,11,16-triazahenicosanedioate]
- Particle size (nm) [1, 4]: 188 nm
- Nucleic acid encapsulation rate (%) [3, 4]: 88%

Structure (SMILES): CCCCCC(CCCCC)COC(=O)CCCCN(C(=O)OCCN(CCCN(CC)CC)CCOC(=O)N(CCCCC(=O)OCC(CCCCC)CCCCC)C(C)C)C(C)C [Example 14, Bis(2-pentylheptyl) 11-(3-(diethylamino)propyl)-6,16-diisopropyl-7,15-dioxo-8,14-dioxa-6,11,16-triazahenicosanedioate]
- Particle size (nm) [1, 4]: 185 nm
- Nucleic acid encapsulation rate (%) [3, 4]: 97%

Structure (SMILES): CCCCCC(CCCCC)COC(=O)CCCCN(CCC)C(=O)OCCN(CCOC(=O)N(CCC)CCCCC(=O)OCC(CCCCC)CCCCC)CCN(CC)CC [Example 15, Bis(2-pentylheptyl) 11-(2-(diethylamino)ethyl)-7,15-dioxo-6,16-dipropyl-8,14-dioxa-6,11,16-triazahenicosanedioate]
- Particle size (nm) [1, 4]: 238 nm
- Nucleic acid encapsulation rate (%) [3, 4]: 79%

Structure (SMILES): CCCCCC(CCCCC)COC(=O)CCCCN(CCC)C(=O)OCCN(CCCN(CC)CC)CCOC(=O)N(CCC)CCCCC(=O)OCC(CCCCC)CCCCC [Example 16, Bis(2-pentylheptyl) 11-(3-(diethylamino)propyl)-7,15-dioxo-6,16-dipropyl-8,14-dioxa-6,11,16-triazahenicosanedioate]
- Particle size (nm) [1, 4]: 187 nm
- Nucleic acid encapsulation rate (%) [3, 4]: 93%

Structure (SMILES): CCCCCC(CCCCC)COC(=O)CCCCN(CC(C)C)C(=O)OCCN(CCOC(=O)N(CCCCC(=O)OCC(CCCCC)CCCCC)CC(C)C)CCN(CC)CC [Example 18, Bis(2-pentylheptyl) 11-(2-(diethylamino)ethyl)-6,16-diisobutyl-7,15-dioxo-8,14-dioxa-6,11,16-triazahenicosanedioate]
- Particle size (nm) [1, 4]: 224 nm
- Nucleic acid encapsulation rate (%) [3, 4]: 43%

Structure (SMILES): CCCCCC(CCCCC)COC(=O)CCCCN(CCCC)C(=O)OCCN(CCOC(=O)N(CCCC)CCCCC(=O)OCC(CCCCC)CCCCC)CCN(CC)CC [Example 21, Bis(2-pentylheptyl) 6,16-dibutyl-11-(2-(diethylamino)ethyl)-7,15-dioxo-8,14-dioxa-6,11,16-triazahenicosanedioate]
- Particle size (nm) [1, 4]: 230 nm
- Nucleic acid encapsulation rate (%) [3, 4]: 64%

Structure (SMILES): CCCCCCCCCCCCOC(=O)CN(CC(=O)OCCCCCCCCCCCC)C(=O)OCCN(CCOC(=O)N(CC(=O)OCCCCCCCCCCCC)CC(=O)OCCCCCCCCCCCC)CCN(CC)CC [Example 32, didodecyl 8-(2-(diethylamino)ethyl)-3,13-bis(2-(dodecyloxy)-2-oxoethyl)-4,12-dioxo-5,11-dioxa-3,8,13-triazapentadecanedioate]
- Particle size (nm) [1, 4]: 203 nm
- Nucleic acid encapsulation rate (%) [3, 4]: 60%

Structure (SMILES): CCCCCCCCCCCCCOC(=O)CN(CC(=O)OCCCCCCCCCCCCC)C(=O)OCCN(CCOC(=O)N(CC(=O)OCCCCCCCCCCCCC)CC(=O)OCCCCCCCCCCCCC)CCN(CC)CC [Example 34, Ditridecyl 8-(2-(diethylamino)ethyl)-4,12-dioxo-3,13-bis(2-oxo-2-(tridecyloxy)ethyl)-5,11-dioxa-3,8,13-triazapentadecanedioate]
- Particle size (nm) [1, 4]: 332 nm
- Nucleic acid encapsulation rate (%) [3, 4]: 33%
